In series [1] the target is ATP-dependent translocase ABCB1 (Mus musculus, UniProt P21447). Kind of series: TP_TRANSPORTER: efflux, inhibited by Verapamil in P388/ADR cells. The class given is functional, cell-based.
The target of series [2] is Multidrug resistance-associated protein 1 (Homo sapiens, UniProt P33527). Kind of series: TP_TRANSPORTER: efflux, inhibited by MK571 in PANC-1 cells. Format: functional, cell-based.
Chain of Multidrug resistance-associated protein 1 (P33527 whole entry): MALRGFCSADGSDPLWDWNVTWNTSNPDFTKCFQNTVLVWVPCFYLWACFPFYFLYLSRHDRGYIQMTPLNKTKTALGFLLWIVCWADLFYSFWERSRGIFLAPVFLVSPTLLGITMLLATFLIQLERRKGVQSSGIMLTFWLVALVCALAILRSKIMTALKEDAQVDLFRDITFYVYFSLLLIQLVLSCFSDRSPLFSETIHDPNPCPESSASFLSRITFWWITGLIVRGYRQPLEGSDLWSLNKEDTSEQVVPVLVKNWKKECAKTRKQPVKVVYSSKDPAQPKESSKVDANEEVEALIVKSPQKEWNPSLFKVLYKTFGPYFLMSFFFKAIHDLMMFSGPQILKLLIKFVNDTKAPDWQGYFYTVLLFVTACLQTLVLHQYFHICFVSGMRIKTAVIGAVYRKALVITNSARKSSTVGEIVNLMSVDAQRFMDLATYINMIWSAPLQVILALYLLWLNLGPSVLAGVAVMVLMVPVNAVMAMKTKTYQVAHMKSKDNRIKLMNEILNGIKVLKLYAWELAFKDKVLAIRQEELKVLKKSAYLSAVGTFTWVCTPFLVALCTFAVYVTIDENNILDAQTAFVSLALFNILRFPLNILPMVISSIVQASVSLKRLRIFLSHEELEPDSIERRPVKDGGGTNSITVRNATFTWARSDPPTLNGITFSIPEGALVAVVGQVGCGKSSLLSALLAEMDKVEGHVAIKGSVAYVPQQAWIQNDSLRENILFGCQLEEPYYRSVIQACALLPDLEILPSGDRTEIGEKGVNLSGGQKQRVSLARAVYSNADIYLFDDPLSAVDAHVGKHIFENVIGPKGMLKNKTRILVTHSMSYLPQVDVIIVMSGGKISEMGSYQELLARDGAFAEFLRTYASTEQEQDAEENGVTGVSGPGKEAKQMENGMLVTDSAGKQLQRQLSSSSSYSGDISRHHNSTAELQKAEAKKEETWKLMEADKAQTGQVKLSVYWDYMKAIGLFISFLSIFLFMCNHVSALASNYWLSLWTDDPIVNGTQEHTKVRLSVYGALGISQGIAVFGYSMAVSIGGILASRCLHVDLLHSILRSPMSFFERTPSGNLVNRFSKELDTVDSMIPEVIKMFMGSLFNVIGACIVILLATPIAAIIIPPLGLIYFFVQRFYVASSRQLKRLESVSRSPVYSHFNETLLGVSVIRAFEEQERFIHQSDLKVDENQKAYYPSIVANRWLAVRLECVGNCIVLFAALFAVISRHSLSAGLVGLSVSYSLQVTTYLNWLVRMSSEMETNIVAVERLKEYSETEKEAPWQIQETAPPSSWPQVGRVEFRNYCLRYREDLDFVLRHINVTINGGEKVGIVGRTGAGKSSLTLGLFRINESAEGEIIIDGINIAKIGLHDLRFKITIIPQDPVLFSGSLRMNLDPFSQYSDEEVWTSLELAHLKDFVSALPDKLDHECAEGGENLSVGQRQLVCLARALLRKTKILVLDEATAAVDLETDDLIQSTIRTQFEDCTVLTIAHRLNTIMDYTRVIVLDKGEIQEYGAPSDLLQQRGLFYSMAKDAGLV

Chain of ATP-dependent translocase ABCB1 (P21447 whole entry): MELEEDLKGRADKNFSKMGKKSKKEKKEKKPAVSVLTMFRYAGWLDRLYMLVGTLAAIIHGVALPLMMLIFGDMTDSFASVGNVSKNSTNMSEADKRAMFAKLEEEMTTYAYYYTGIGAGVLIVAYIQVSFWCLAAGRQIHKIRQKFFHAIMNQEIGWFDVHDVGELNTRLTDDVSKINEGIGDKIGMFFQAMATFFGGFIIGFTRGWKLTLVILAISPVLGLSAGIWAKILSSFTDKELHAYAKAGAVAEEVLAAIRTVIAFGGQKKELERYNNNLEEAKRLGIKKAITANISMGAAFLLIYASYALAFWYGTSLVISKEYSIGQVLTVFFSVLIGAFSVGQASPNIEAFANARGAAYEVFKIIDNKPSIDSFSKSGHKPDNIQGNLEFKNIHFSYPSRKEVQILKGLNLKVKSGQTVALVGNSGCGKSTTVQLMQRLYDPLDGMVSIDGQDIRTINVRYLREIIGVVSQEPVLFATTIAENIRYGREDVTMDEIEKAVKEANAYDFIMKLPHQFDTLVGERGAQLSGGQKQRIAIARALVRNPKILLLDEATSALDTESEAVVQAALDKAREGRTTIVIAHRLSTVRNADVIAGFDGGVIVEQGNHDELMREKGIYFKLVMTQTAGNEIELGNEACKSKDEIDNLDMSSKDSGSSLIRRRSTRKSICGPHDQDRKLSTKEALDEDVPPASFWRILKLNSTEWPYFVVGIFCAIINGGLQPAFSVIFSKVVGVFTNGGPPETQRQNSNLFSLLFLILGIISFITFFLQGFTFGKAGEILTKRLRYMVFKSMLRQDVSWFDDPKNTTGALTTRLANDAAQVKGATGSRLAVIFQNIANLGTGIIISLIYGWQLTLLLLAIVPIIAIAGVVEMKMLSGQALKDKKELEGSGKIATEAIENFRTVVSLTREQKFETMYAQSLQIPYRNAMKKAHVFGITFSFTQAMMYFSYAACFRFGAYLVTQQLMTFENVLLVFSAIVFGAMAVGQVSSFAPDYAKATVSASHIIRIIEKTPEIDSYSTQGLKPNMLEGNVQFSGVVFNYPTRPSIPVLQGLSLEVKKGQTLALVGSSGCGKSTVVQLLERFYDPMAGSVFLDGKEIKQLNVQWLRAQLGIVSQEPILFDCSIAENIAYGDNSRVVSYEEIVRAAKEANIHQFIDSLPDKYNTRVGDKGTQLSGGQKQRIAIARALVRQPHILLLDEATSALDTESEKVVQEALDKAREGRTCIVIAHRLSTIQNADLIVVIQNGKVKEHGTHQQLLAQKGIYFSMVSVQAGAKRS

Turning to `COc1ccc(CCN(C)CCCC(CNC(=O)NCC2=[N+]3C(=Cc4c(C)cc(C)n4[B-]3(F)F)C=C2)(c2ccc(OC)c(OC)c2)C(C)C)cc1OC` (configuration not stated), the Activity result in series [1] and in series [2] was “substrate [+]” throughout.

These data come from ChEMBL document CHEMBL2074455, “The fluorescent probe Bodipy-FL-verapamil is a substrate for both P-glycoprotein and multidrug resistance-related protein (MRP)-1” (J Histochem Cytochem, 2002).
